This assay concerns muscarinic receptor. The assay can be described thus: Test on salivary secretion in rat (oxotremorine-induced), compared with rhythmic bladder contraction test. In kind it is in vivo. The note with it: anesthetized Wistar rat; ID50 = 50% inhibition of saliva, ED30 = 30% inhibition of bladder contraction. As to the method: a. Test on Rhythmic Bladder Contraction in Rat
A female Wistar rat (130-200 g) is subjected to urethane anesthesia (1.0 g/kg s.c.), followed by ligation of the ureter on the kidney side. A urethral catheter is allowed to remain in the bladder, and about 1.0 mL of physiological saline is injected into the bladder through the catheter to cause rhythmic bladder contraction. Intravesical pressure is measured by a pressure transducer. After rhythmic contraction continues stable for at least 5 minutes, the test compound is cumulatively administered from the external jugular vein. Five to ten minutes later, the intravesical pressure is measured. An inhibition ratio of bladder contraction is determined compared with the bladder contraction before administration of the test compound and the dose of the test compound required for 30% inhibition of the bladder contraction before administration is designated as ED30.
b. Test on Salivary Secretion in Rat
A male Wistar rat (160-190 g) is subjected to anesthesia with urethane (0.8 g/kg i.p.), and the test compound is administered (to the control group: solvent). Fifteen minutes later, 0.8 μmol/kg of oxotremorine is administered. In each case, the drug is administered through the femoral artery. The saliva secreted for 5 minutes after the administration of oxotremorine is collected and weighed. […]

In the case of `CN1[C@@H]2CC[C@H]1C[C@@H](OC(=O)C(CO)c1ccccc1)C2` (stereo partly shown) [atropine], the “ID50 value (salivary secretion) relative to ED30 value (rhythmic bladder contraction)” value is given as “substantially the same”.

The values are drawn from patent US11179393B2, “Methods of treating or preventing preterm labor” (priority 2014, dated 2021).
